Source: patent EP4596561A1, “PHOSPHORUS-CONTAINING COMPOUND, PHARMACEUTICAL COMPOSITION AND USE THEREOF” (Suzhou Genhouse Bio Co., Ltd., priority 2022, dated 2024)
Like-named read-outs stand apart in the source and are kept apart here.

What was measured:
[1] = Stability test in liver microsomes; assay type: in vitro ADME; details: Human liver microsomes, 0.5 mg/mL, 1.0 µM substrate
Experimental: (§1) Phase I metabolic stability of the test compounds in liver microsomes of CD-1 mice, Sprague-Dawley rats, and humans was assessed.
(§2) The animal and human liver microsomes used in the test system were purchased from Xenotech, Corning, or other qualified suppliers and stored in a freezer at a temperature below -60 °C prior to use. The information of the animal and human liver microsomes used was as follows:
(§3) The test samples and the reference compounds were separately incubated with animal and human liver microsomes at 37±1 °C for a period of incubation time of up to 60 min. The samples were taken out at the indicated time points, and the reaction was stopped with acetonitrile or another organic solvent containing an internal standard. After centrifugation, the resulting supernatants were assayed by the liquid chromatography-tandem mass spectrometry (LC-MS/MS) method.
(§4) Microsomes of each species were diluted into a 2× working solution with a 100 mM potassium phosphate buffer. […]
(§5) Incubation was performed in a 96-well plate. Eight incubation plates were prepared and designated T0, T5, T15, T30, T45, T60, Blank60, and NCF60, respectively. The first 6 plates corresponded to reaction time points of 0 min, 5 min, 15 min, 30 min, 45 min, and 60 min, respectively. No test sample or reference compound was added to the Blank60 plate, and samples were taken after 60 min of incubation. In the NCF60 plate, incubation was performed for 60 min using the potassium phosphate buffer instead of the NADPH regeneration system solution. Three replicates were made for samples in all conditions.
(§6) The microsomes and the test sample or reference compound were mixed, and then the incubation plates Blank60, T5, T15, T30, T45, and T60 except for T0 and NCF60 were placed in a 37 °C water bath for pre-incubation for about 10 min. In the incubation plate T0, a stop solution was first added, followed by the addition of the NADPH regeneration system working solution, and 98 µL of the potassium phosphate buffer was added to each sample well of the incubation plate NCF60 to initiate the reaction. After the pre-incubation of the incubation plates Blank60, T5, T15, T30, T45, and T60 was completed, 98 µL of the NADPH regeneration system working solution was added to each sample well to initiate the reaction. The reaction temperature was 37±1 °C, the final volume of the reaction was 200 µL, and the reaction system included 0.5 mg/mL microsomes, 1.0 µM substrate, 1 mM NADP, 6 mM ISO, and 1 unit/mL IDH.
(§7) At 5 min, 15 min, 30 min, 45 min, and 60 min, a cold stop solution containing an internal standard was added to the reaction plate to stop the reaction.
(§8) All the reaction plates after the reaction was stopped were shaken well and centrifuged at 3220× g at 4 °C for 20 min. After the supernatant was diluted at a certain ratio, LC-MS/MS analysis was performed.
(§9) Sample analysis was performed by the liquid chromatography-tandem mass spectrometry (LC-MS/MS) method without standard curves and quality control samples. Semi-quantitative determination was performed according to the ratio of the analyte peak area to the internal standard peak area. The retention times of the analyte and internal standard, the chromatogram acquisition, and chromatogram integration were processed using the Analyst software (Sciex, Framingham, Massachusetts, USA).
(§10) According to the well stir model, the hepatic intrinsic clearance and hepatic clearance can be converted through the following formula. CL(liver) = (CLint(liver)×Qh)/(CLint(liver)+Qh) [formula]

[2] = Stability test in liver microsomes; assay type: in vitro ADME, SD rat; details: rat liver microsomes, 0.5 mg/mL, 1.0 µM substrate
Experimental: as §1, §2, §3, §4, §5, §6, §7, §8, §9, §10

[3] = Stability test in liver microsomes; assay type: in vitro ADME, CD-1 mouse; details: mouse liver microsomes, 0.5 mg/mL, 1.0 µM substrate
Experimental: as §1, §2, §3, §4, §5, §6, §7, §8, §9, §10

[4] = Pharmacokinetic test in mice (low dose); assay type: in vivo, Balb/c mice; details: mouse, mice; for AUC(0-t): read-out: AUClast; for clearance: read-out: Cl (converted); for half-life: read-out: T1/2 (converted); for bioavailability: PO 10 mg/kg vs IV 2 mg/kg, read-out: F%; for Cmax: read-out: Cmax
H226 cells = test: Pharmacodynamic test, H226 subcutaneous xenograft; assay type: in vivo, nude mice (BALB/c nu/nu)
Experimental: Healthy female nude mice (BALB/c nu/nu) aged 6-8 weeks were housed in an SPF environment in accordance with animal ethical guidelines. The well-growing 10^7 H226 cells were harvested through trypsin digestion, washed in phosphate-buffered saline (PBS), and then resuspended in PBS containing 50% matrigel (BD Biosciences).
Subcutaneous injection was then performed at the dorsolateral sites of the mice, and the tumor volume was measured once every three days thereafter. When the tumor volume reached around 150-200 mm^3, the mice were randomly assigned to different treatment groups. Any one of the compounds described herein was prepared accordingly and administered at an appropriate dose. Finally, the tumor growth in the nude mice was analyzed after 4 to 6 weeks based on the growth of the tumors.

| MRT ([4]; plasma, IV 2 mg/kg) [h] | AUC(0-t) ([4]; plasma, IV 2 mg/kg) [µM·h] | clearance ([4]; plasma, IV 2 mg/kg) [mL/min/kg] | half-life ([4]; plasma, IV 2 mg/kg) [h] | MRT ([4]; plasma, PO 10 mg/kg) [h] | bioavailability ([4]; plasma) [%] | AUC(0-t) ([4]; plasma, PO 10 mg/kg) [µM·h] | Cmax ([4]; plasma, PO 10 mg/kg) [µM] | Compound | half-life at 1 µM [1] [h] | half-life at 1 µM [2] [h] | half-life at 1 µM [3] [h] | MRT ([4]; in vivo, IV 2 mg/kg) [h] | AUC(0-t) ([4]; in vivo, IV 2 mg/kg) [µM·h] | clearance ([4]; in vivo, IV 2 mg/kg) [mL/min/kg] | half-life ([4]; in vivo, IV 2 mg/kg) [h] | MRT ([4]; in vivo, PO 10 mg/kg) [h] | bioavailability ([4]; in vivo) [%] | AUC(0-t) ([4]; in vivo, PO 10 mg/kg) [µM·h] | Cmax ([4]; in vivo, PO 10 mg/kg) [µM] | half-life ([4]; in vivo, PO 10 mg/kg) [h] | other results |
| --- | --- | --- | --- | --- | --- | --- | --- | --- | --- | --- | --- | --- | --- | --- | --- | --- | --- | --- | --- | --- | --- |
|  |  |  |  |  |  |  |  | CP(C)(=O)c1ccc2c(c1)c1ccccc1n2-c1ccc(C(F)(F)F)cc1 [Example 1] | > 2.42 | > 2.42 | > 2.42 | 6.1 | 30.7 | 2.83 | 4.2 | 6.5 | 118 | 182 | 12.9 | 3.9 | TGI (H226 cells; 50mpk QD): 50mpk QD TGI = 108.39%; TGI (H226 cells; 100mpk QD): 100mpk QD TGI = 113.05% |
| 2.5 | 9.37 | 8.33 | 1.8 | 5.3 | 318 | 155 | 15.5 | CP(C)(=O)c1ccc2c(c1)c1cccnc1n2-c1ccc(C(F)(F)F)cc1 [Example 5] |  |  |  |  |  |  |  |  |  |  |  |  | half-life ([4]; plasma, PO 10 mg/kg): 2.6 h |
|  |  |  |  |  |  |  |  | CP(C)(=O)c1ccc2c(Oc3ccc(C(F)(F)F)cc3)cccc2c1 [Example 7] | > 2.42 | > 2.42 | > 2.42 | 171 | 50.7 | 0.25 | 120 | 211 | 106 | 267 | 12.7 | 146 | TGI (H226 cells; 5mpk QD): 5mpk QD TGI = 111.84% |
|  |  |  |  |  |  |  |  | Cn1cnc(-c2cc(P(C)(C)=O)cnc2Nc2ccc(C(F)(F)F)cc2)c1 [Example 8] | > 2.42 | > 2.42 | > 2.42 | 6.4 | 7.94 | 10 | 5.6 | 47.2 | 300 | 119 | 14.6 | 34.2 | TGI (H226 cells; 10mpk QD): 10mpk QD TGI = 115.60% |
| 75 | 59.3 | 0.4 | 52 | 75.6 | 98 | 290 | 14.6 | CP(C)(=O)c1ccc(Nc2ccc(C(F)(F)F)cc2)c(-c2ccccn2)c1 [Example 10] | > 2.42 | > 2.42 | > 2.42 |  |  |  |  |  |  |  |  |  | half-life ([4]; plasma, PO 10 mg/kg): 28.2 h; TGI (H226 cells; 25mpk QD): 25mpk QD TGI = 100.89% |
| 23.4 | 58.8 | 1 | 17.2 | 34.5 | 100 | 295 | 16.1 | CP(C)(=O)c1ccc(Nc2ccc(C(F)(F)F)cc2)c(-c2ncccn2)c1 [Example 12] | > 2.42 | > 2.42 | > 2.42 |  |  |  |  |  |  |  |  |  | half-life ([4]; plasma, PO 10 mg/kg): 25.6 h; TGI (H226 cells; 50mpk QD): 50mpk QD TGI = 111.58% |
|  |  |  |  |  |  |  |  | Cn1cnc(-c2cc(P(C)(C)=O)ccc2Nc2ccc(C(F)(F)F)cc2)c1 [Example 14] | > 2.42 | > 2.42 | > 2.42 | 26.2 | 21.2 | 2.33 | 19 | 17.8 | 106 | 112 | 8.08 | 12.3 | TGI (H226 cells; 10mpk QD): 10mpk QD TGI = 100.38% |
|  |  |  |  |  |  |  |  | CP(C)(=O)c1cnc(Nc2ccc(C(F)(F)F)cc2)c(-c2cn3c(n2)CCC3)c1 [Example 22] | > 2.42 | > 2.42 | > 2.42 | 10.8 | 16.4 | 4.17 | 8.9 | 9.9 | 114 | 96.4 | 7.07 | 7.6 | TGI (H226 cells; 10mpk QD): 10mpk QD TGI = 106.26%; TGI (H226 cells; 30mpk QD): 30mpk QD TGI = 113.45% |
|  |  |  |  |  |  |  |  | Cc1ccc(Oc2ccc(C(F)(F)F)cc2)c2ccc(P(C)(C)=O)cc12 [Example 24] | 2.77 | 1.37 | 1.98 |  | 22.1 | 3.3 | 11 |  | 120 | 133 | 7.82 | 16.2 |  |
